Experimental data reported in patent publication US8980936B2, “Phenoxy-pyrrolidine derivative and its use and compositions” (Thesan Pharmaceuticals, Inc., priority 2007, dated 2015).
Each block holds one molecule with its values, some of them ahead of it.

What was measured:
sebum production = conditions: background statement, cited from earlier work
[1] = biological target: T1, stearoyl CoA desaturase (SCD1) (Rattus norvegicus, UniProt P07308); test: Rat microsomal assay: conversion of labeled stearoyl CoA to oleoyl CoA by LC/MS/MS; format: biochemical; conditions: rat liver microsomes; 40 μM substrate (2× Km); mean of N=3; read-out: IC50, inhibition of SCD1 activity (conversion of stearoyl CoA to oleoyl CoA)
T1 construct: Rat liver microsomes are allowed to react with stearoyl-coenzyme A labeled with D3; from tissue
T1 sequence (P07308 1-358): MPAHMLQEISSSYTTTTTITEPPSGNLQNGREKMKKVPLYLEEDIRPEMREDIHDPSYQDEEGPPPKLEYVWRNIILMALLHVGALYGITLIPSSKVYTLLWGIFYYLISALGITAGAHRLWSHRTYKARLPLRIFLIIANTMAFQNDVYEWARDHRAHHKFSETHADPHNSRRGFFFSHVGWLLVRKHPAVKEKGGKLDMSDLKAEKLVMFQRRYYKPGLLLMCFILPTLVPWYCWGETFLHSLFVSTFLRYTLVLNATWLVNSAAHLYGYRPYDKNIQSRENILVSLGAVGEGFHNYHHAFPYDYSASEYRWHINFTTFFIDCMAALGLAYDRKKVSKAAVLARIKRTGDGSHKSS
Method: As described below, the assay measures the conversion of labeled stearoyl CoA to oleoyl CoA using LC/MS/MS.
In order to increase SCD1 activity in rat liver microsomes, Sprague Dawley rats are fasted for 40 hours. Following fasting diet is replaced with free fatty acid deficient chow ad libitum for 48 hours. Rats are then euthanized using CO2 asphyxiation and their livers are removed. Livers are weighed, minced and placed in homogenization buffer ([…], 50 mM Tris-HCl, pH 7.5, 5 mM EDTA, 1.5 mM GSH) on ice. Microsomes are isolated by homogenization with a polytron and several centrifugation steps. Following final centrifugation, the resulting pellet is resuspended in homogenization buffer and protein concentration is determined. Aliquots are stored at −80° C. until use.
Rat liver microsomes are allowed to react with stearoyl-coenzyme A labeled with D3 in the presence of the compound of Formula I to test the compound's ability to inhibit the conversion of stearoyl-coenzyme A to oleoyl coenzyme A. The reaction is terminated using acetonitrile. Free fatty acids are extracted by saponification of the samples with 2M KOH at 70° C. […] Samples are reconstituted in 9:1 Methanol:Water, with 2 ug/ml heptadecanoic acid added as an internal standard, and analyzed by LC/MS/MS. The ability to inhibit the conversion of stearoyl CoA to oleoyl CoA is expressed as an IC50.

[2] = biological target: T2, SCD1 enzyme in intact human cells (Homo sapiens, UniProt O00767); test: Human adipocyte (AdipoRed) assay: production of triglycerides; format: cell-based; conditions: differentiated human subcutaneous adipocytes; 6 days compound treatment; mean of N=6; read-out: IC50, inhibition of the production of triglycerides
T2 construct: The cells were received as pre-adipocytes and then differentiated for 5 days in a 384 well format; host or cells: cryopreserved human subcutaneous preadipocytes, differentiated to adipocytes
T2 sequence (O00767 1-359): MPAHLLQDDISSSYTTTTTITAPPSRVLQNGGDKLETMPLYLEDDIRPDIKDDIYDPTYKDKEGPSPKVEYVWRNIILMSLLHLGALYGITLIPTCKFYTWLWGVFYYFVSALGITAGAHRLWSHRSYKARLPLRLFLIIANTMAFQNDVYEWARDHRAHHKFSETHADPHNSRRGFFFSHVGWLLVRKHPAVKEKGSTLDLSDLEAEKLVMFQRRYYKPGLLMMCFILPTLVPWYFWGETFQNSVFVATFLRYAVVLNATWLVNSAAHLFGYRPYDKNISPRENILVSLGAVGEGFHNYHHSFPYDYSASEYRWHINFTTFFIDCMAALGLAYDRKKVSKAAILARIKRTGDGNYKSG
Method: The role of SCD1 is believed to be similar in adipocytes and sebocytes. The ability of the compound to inhibit the SCD1 enzyme in intact human cells was determined using the Human AdipoRed assay as described below. The cells were received as pre-adipocytes and then differentiated for 5 days in a 384 well format. The compound is added at various concentrations for 6 days. The production of triglycerides was then assessed by a unique dye which specifically binds to secreted triglycerides. The ability to inhibit the production of triglycerides is expressed as an IC50.
Cryopreserved subcutaneous preadipocytes (Cat #: PT-5001 Supplier: Cambrex Bio Science) were briefly thawed in 37 C and spin down at 1000 rpm for 5 minutes. Preadipocyte are resuspended in 30 ml of Growth Media (GM, Cat #: PT-8202 Cambrex Bio Science) and are diluted to final concentration of 75,000 cells/ml. 40 μl of Cells are then plated into wells of 384-Well BD Falcon polystyrene assay plate at the density of 3,000 cells (40 μl) per well. […]
After 5 days' differentiation, cells were treated with 2 μl of the compound from 96-well compound plate in duplicate by Biomek FX. […] The accumulation of intracellular triglycerides is then quantified by measuring fluoresce at 572 nm on a SpectraMax M5 microplate reader.

male Syrian hamsters = test: Hamster ear model: inhibition of sebum production; format: in vivo, Syrian hamster
Source text: The hamster ear model is a validated animal model for testing whether compounds are capable of modulating sebaceous gland function and sebum secretion. Luderschmidt et al, Arch. Derm. Res. 258, 185-191 (1977). This model uses male Syrian hamsters, whose ears contain sebaceous glands. The compound of the invention was screened in this model according to the procedure outlined below. In these studies, the hamsters are topically dosed twice daily (BID) for 2 weeks, 5 days a week (Monday to Friday). Each dose consisted of 25 μl of vehicle control or formulated test article, which was evenly applied to ˜3 cm^2 of the ventral surfaces of both the right and left ears. At sacrifice, skin punches are taken for lipid analysis, histology and skin concentrations of the test compound.
Male Syrian hamsters aged 9 to 10 weeks were introduced into the laboratory environment and acclimated for 2 weeks prior to use in the study. Each group consisted of 5 animals and run in parallel with vehicle and positive controls. […]
Animals were dosed topically twice daily, five days a week, for 2 weeks. Each dose consisted of 25 μl of vehicle control or drug. The dose was applied to the ventral surfaces of both the right and left ears. All animals were sacrificed approximately 18-24 hours after the final dose. The right ears were collected from each animal and used for sebum analysis.
The ears were prepped for HPLC analysis in the following manner. One 8 mm distal biopsy punch was taken, just above the anatomical “V” mark in the ear to normalize the sample area. The punch was pulled apart. The ventral biopsy surface (the area where the topical dose was directly applied to the sebaceous glands) was retained for testing and the dorsal surface of the biopsy punch was discarded.
Tissue samples were blown with N2 gas and stored at −80° C. under nitrogen until HPLC analysis. In addition to ear samples, an aliquot of each drug and vehicle (at least 250 μl) was also stored at −80° C. for inclusion in the HPLC analysis.
HPLC analysis was carried out on an extract of the tissue sample. Tissue samples were contacted with 3 ml of solvent (a 4:1 admixture of 2,2,4-trimethylpentane and isopropyl alcohol). The mixture was shaken for 15 minutes and stored overnight at room temperature, protected from light. The next morning 1 milliliter of water was added to the sample and shaken for 15 minutes. The sample was then centrifuged at approximately 1500 rpm for 15 minutes. Two ml of the organic phase (top layer) was transferred to a glass vial, dried at 37° C., under nitrogen, for approximately 1 hour, and then lyophilized for approximately 48 hours. The samples were then removed from the lyophilizer and each vial was reconstituted with 600 μl of solvent A (trimethylpentane/tetrahydrofuran (99:1). The samples were then recapped and vortexed for 5 minutes.
200 μl of each sample was then transferred to a pre-labeled 200 μl HPLC vial with 200 μL glass inserts. The HPLC vials were placed in the autosampler tray for the Agilent 1100 series HPLC unit. The Agilent 1100 HPLC system consisted of a thermostated autosampler, a quaternary pump, a column heater, and an A/D interface module. All components were controlled by Agilent ChemStation software. A Waters Spherisorb S3W […] analytical column was maintained at 30° C. by the Agilent column heater unit. The HPLC autosampler was programmed to maintain the sample temperature at 20° C. throughout the run.
10 μL of each sample was injected in triplicate into the column. Two solvents were used for the solvent gradient. Solvent A was an admixture of trimethylpentane and tetrahydrofuran (99:1). Solvent B was ethyl acetate. The gradient utilized is described in the table below: […]
The Sedex 75 Evaporative Light Scattering Detector (ELSD) was operated at 45° C. with a gain of 5, and N2 pressure maintained at 3.1 bar. Analog signal obtained by the instrument was sent to the Agilent A/D interface module where it was converted to a digital output. […]

[3] = dose response experiment, formulated in propylene glycol:ethanol 30.70 (w/v), topical
[4] = dosed at 1.5% in propylene glycol/transcutanol/ethanol 20/20/60, topical BID, 2 weeks, hamster ear
[5] = two week topical BID application, propylene glycol:ethanol 30.70

SMILES: CC1=C(/C=C/C(C)=C/C=C/C(C)=C\C(=O)O)C(C)(C)CCC1 [Isotretinoin]
suppression of sebum production (sebum production): up to 90%

SMILES: CCOC(=O)/C=C(C)/C=C/C=C(C)/C=C/c1c(C)cc(OC)c(C)c1C [etretinate]
effect on sebum synthesis (sebum production; Zouboulis 2004): do not reduce sebum synthesis

IC50 [1]: 5.8 nM
IC50 [2]: 6.8 nM
SMILES: O=C(COc1ccc(CO)cc1)N1CC[C@H](Oc2ccccc2C(F)(F)F)C1 [compound of Formula I, (S)-2-(4-(hydroxymethyl)phenoxy)-1-(3-(2-(trifluoromethyl)phenoxy)pyrroli-din-1-yl)ethanone]
CE and WE production, dose response (male Syrian hamsters; [3]): dose dependent decrease of both CE and WE production
sebaceous gland size and number, histology (male Syrian hamsters; [3]): Dose related changes in sebaceous gland size and number
reduction in cholesterol ester (CE) compared to vehicle control (male Syrian hamsters; [4]): 62%
reduction in wax ester (WE) compared to vehicle control (male Syrian hamsters; [4]): 82%
sebaceous gland size (male Syrian hamsters; [4]): reduction in sebaceous gland size
ED50 based on WE reduction (male Syrian hamsters; [5]): 0.3%
ED50 based on WE reduction, per area (male Syrian hamsters; [5]): 0.025 mg/cm^2
